Laboratory results from ChEMBL document CHEMBL3576778, “Structure-Activity Relationship Studies of a Series of Semisynthetic Lipopeptides Leading to the Discovery of Surotomycin, a Novel Cyclic Lipopeptide Being Developed for the Treatment of Clostridium difficile-Associated Diarrhea” (J Med Chem, 2015).
In brackets after ≈: the same amount, converted by molar mass.

How the values were obtained:
Type in all cases: functional
[1] = tested on: Clostridioides difficile; assay: Antimicrobial activity against daptomycin-resistant Clostridium difficile NAP1 incubated anaerobically at 37 degC for 48 hrs by agar dilution method; conditions: NAP1, 48 h
[2] = tested on: Enterococcus faecalis; assay: Antimicrobial activity against daptomycin-resistant Enterococcus faecalis ATCC 49452 incubated anaerobically at 37 degC for 48 hrs by agar dilution method; conditions: ATCC 49452, 48 h
[3] = tested on: Staphylococcus aureus; assay: Antimicrobial activity against daptomycin-non-susceptible Staphylococcus aureus 42 incubated anaerobically at 37 degC for 48 hrs by agar dilution method; conditions: Staphylococcus aureus, 42, 48 h
[4] = tested on: Staphylococcus aureus; assay: Antimicrobial activity against daptomycin-non-susceptible Staphylococcus aureus 399 incubated anaerobically at 37 degC for 48 hrs by agar dilution method; conditions: Staphylococcus aureus, 399, 48 h
[5] = tested on: Staphylococcus aureus; assay: Antimicrobial activity against daptomycin-non-susceptible Staphylococcus aureus 278 incubated anaerobically at 37 degC for 48 hrs by agar dilution method; conditions: Staphylococcus aureus, 278, 48 h
[6] = tested on: Staphylococcus aureus; assay: Antimicrobial activity against daptomycin-non-susceptible Staphylococcus aureus 1145 incubated anaerobically at 37 degC for 48 hrs by agar dilution method; conditions: Staphylococcus aureus, 1145, 48 h
[7] = tested on: Staphylococcus aureus; assay: Antimicrobial activity against daptomycin-non-susceptible Staphylococcus aureus 1146 incubated anaerobically at 37 degC for 48 hrs by agar dilution method; conditions: Staphylococcus aureus, 1146, 48 h
[8] = tested on: Staphylococcus aureus; assay: Antimicrobial activity against daptomycin-non-susceptible Staphylococcus aureus 1179 incubated anaerobically at 37 degC for 48 hrs by agar dilution method; conditions: Staphylococcus aureus, 1179, 48 h
[9] = tested on: Staphylococcus aureus; assay: Antimicrobial activity against daptomycin-non-susceptible Staphylococcus aureus 1326 incubated anaerobically at 37 degC for 48 hrs by agar dilution method; conditions: Staphylococcus aureus, 1326, 48 h
[10] = tested on: Staphylococcus aureus; assay: Antimicrobial activity against daptomycin-non-susceptible Staphylococcus aureus 1616 incubated anaerobically at 37 degC for 48 hrs by agar dilution method; conditions: Staphylococcus aureus, 1616, 48 h
[11] = tested on: Staphylococcus aureus; assay: Antimicrobial activity against daptomycin-non-susceptible Staphylococcus aureus 5003 incubated anaerobically at 37 degC for 48 hrs by agar dilution method; conditions: Staphylococcus aureus, 5003, 48 h
[12] = tested on: Staphylococcus aureus; assay: Antimicrobial activity against daptomycin-non-susceptible Staphylococcus aureus 5004 incubated anaerobically at 37 degC for 48 hrs by agar dilution method; conditions: Staphylococcus aureus, 5004, 48 h
[13] = tested on: Staphylococcus aureus; assay: Antimicrobial activity against daptomycin-non-susceptible Staphylococcus aureus 5005 incubated anaerobically at 37 degC for 48 hrs by agar dilution method; conditions: Staphylococcus aureus, 5005, 48 h
[14] = tested on: Staphylococcus aureus; assay: Antimicrobial activity against daptomycin-non-susceptible Staphylococcus aureus 5010 incubated anaerobically at 37 degC for 48 hrs by agar dilution method; conditions: Staphylococcus aureus, 5010, 48 h
[15] = tested on: Staphylococcus aureus; assay: Antimicrobial activity against daptomycin-non-susceptible Staphylococcus aureus 5012 incubated anaerobically at 37 degC for 48 hrs by agar dilution method; conditions: Staphylococcus aureus, 5012, 48 h
[16] = tested on: Staphylococcus aureus; assay: Antimicrobial activity against daptomycin-non-susceptible Staphylococcus aureus 5014 incubated anaerobically at 37 degC for 48 hrs by agar dilution method; conditions: Staphylococcus aureus, 5014, 48 h
[17] = tested on: Staphylococcus aureus; assay: Antimicrobial activity against daptomycin-non-susceptible Staphylococcus aureus 5016 incubated anaerobically at 37 degC for 48 hrs by agar dilution method; conditions: Staphylococcus aureus, 5016, 48 h
[18] = tested on: Staphylococcus aureus; assay: Antimicrobial activity against daptomycin-non-susceptible Staphylococcus aureus 5017 incubated anaerobically at 37 degC for 48 hrs by agar dilution method; conditions: Staphylococcus aureus, 5017, 48 h
[19] = tested on: Staphylococcus aureus; assay: Antimicrobial activity against daptomycin-non-susceptible Staphylococcus aureus 5030 incubated anaerobically at 37 degC for 48 hrs by agar dilution method; conditions: Staphylococcus aureus, 5030, 48 h
[20] = tested on: Staphylococcus aureus; assay: Antimicrobial activity against daptomycin-non-susceptible Staphylococcus aureus 5034 incubated anaerobically at 37 degC for 48 hrs by agar dilution method; conditions: Staphylococcus aureus, 5034, 48 h
[21] = tested on: Staphylococcus aureus; assay: Antimicrobial activity against daptomycin-non-susceptible Staphylococcus aureus 5059 incubated anaerobically at 37 degC for 48 hrs by agar dilution method; conditions: Staphylococcus aureus, 5059, 48 h
[22] = tested on: Staphylococcus aureus; assay: Antimicrobial activity against daptomycin-non-susceptible Staphylococcus aureus 5060 incubated anaerobically at 37 degC for 48 hrs by agar dilution method; conditions: Staphylococcus aureus, 5060, 48 h
[23] = tested on: Staphylococcus aureus; assay: Antimicrobial activity against daptomycin-non-susceptible Staphylococcus aureus 5080 incubated anaerobically at 37 degC for 48 hrs by agar dilution method; conditions: Staphylococcus aureus, 5080, 48 h
[24] = tested on: Staphylococcus aureus; assay: Potency index, ratio of MIC for daptomycin to MIC for test compound against daptomycin-non-susceptible Staphylococcus aureus 278 incubated anaerobically at 37 degC for 48 hrs by agar dilution method
[25] = tested on: Staphylococcus aureus; assay: Potency index, ratio of MIC for daptomycin to MIC for test compound against daptomycin-non-susceptible Staphylococcus aureus 1145 incubated anaerobically at 37 degC for 48 hrs by agar dilution method
[26] = tested on: Staphylococcus aureus; assay: Potency index, ratio of MIC for daptomycin to MIC for test compound against daptomycin-non-susceptible Staphylococcus aureus 1179 incubated anaerobically at 37 degC for 48 hrs by agar dilution method
[27] = tested on: Staphylococcus aureus; assay: Potency index, ratio of MIC for daptomycin to MIC for test compound against daptomycin-non-susceptible Staphylococcus aureus 5003 incubated anaerobically at 37 degC for 48 hrs by agar dilution method
[28] = tested on: Staphylococcus aureus; assay: Potency index, ratio of MIC for daptomycin to MIC for test compound against daptomycin-non-susceptible Staphylococcus aureus 5004 incubated anaerobically at 37 degC for 48 hrs by agar dilution method
[29] = tested on: Staphylococcus aureus; assay: Potency index, ratio of MIC for daptomycin to MIC for test compound against daptomycin-non-susceptible Staphylococcus aureus 5012 incubated anaerobically at 37 degC for 48 hrs by agar dilution method
[30] = tested on: Staphylococcus aureus; assay: Potency index, ratio of MIC for daptomycin to MIC for test compound against daptomycin-non-susceptible Staphylococcus aureus 5014 incubated anaerobically at 37 degC for 48 hrs by agar dilution method
[31] = tested on: Staphylococcus aureus; assay: Potency index, ratio of MIC for daptomycin to MIC for test compound against daptomycin-non-susceptible Staphylococcus aureus 5016 incubated anaerobically at 37 degC for 48 hrs by agar dilution method
[32] = tested on: Staphylococcus aureus; assay: Potency index, ratio of MIC for daptomycin to MIC for test compound against daptomycin-non-susceptible Staphylococcus aureus 5017 incubated anaerobically at 37 degC for 48 hrs by agar dilution method
[33] = tested on: Staphylococcus aureus; assay: Potency index, ratio of MIC for daptomycin to MIC for test compound against daptomycin-non-susceptible Staphylococcus aureus 5030 incubated anaerobically at 37 degC for 48 hrs by agar dilution method
[34] = tested on: Staphylococcus aureus; assay: Potency index, ratio of MIC for daptomycin to MIC for test compound against daptomycin-non-susceptible Staphylococcus aureus 5034 incubated anaerobically at 37 degC for 48 hrs by agar dilution method
[35] = tested on: Staphylococcus aureus; assay: Potency index, ratio of MIC for daptomycin to MIC for test compound against daptomycin-non-susceptible Staphylococcus aureus 5059 incubated anaerobically at 37 degC for 48 hrs by agar dilution method
[36] = tested on: Staphylococcus aureus; assay: Potency index, ratio of MIC for daptomycin to MIC for test compound against daptomycin-non-susceptible Staphylococcus aureus 5080 incubated anaerobically at 37 degC for 48 hrs by agar dilution method
[37] = tested on: Prevotella sp.; assay: Toxicity against Prevotella spp. assessed as inhibition of microbe growth

## CCCCCc1ccc(/C(C)=C/C(=O)N[C@@H](Cc2c[nH]c3ccccc23)C(=O)N[C@H](CC(N)=O)C(=O)N[C@@H](CC(=O)O)C(=O)N[C@@H]2C(=O)NCC(=O)N[C@@H](CCCN)C(=O)N[C@@H](CC(=O)O)C(=O)N[C@H](C)C(=O)N[C@@H](CC(=O)O)C(=O)NCC(=O)N[C@H](CO)C(=O)N[C@@H]([C@@H](C)CC(=O)O)C(=O)N[C@@H](CC(=O)c3ccccc3N)C(=O)O[C@@H]2C)cc1
[1]
  MIC: 0.5 µg/mL (≈ 0.297 µM)
[2]
  MIC: 4 µg/mL (≈ 2.38 µM)
[3]
  MIC: 0.125 µg/mL (≈ 0.0744 µM)
[4]
  MIC: 0.125 µg/mL (≈ 0.0744 µM)
[5]
  MIC: 1 µg/mL (≈ 0.595 µM)
[6]
  MIC: 0.25 µg/mL (≈ 0.149 µM)
[7]
  MIC: 0.25 µg/mL (≈ 0.149 µM)
[8]
  MIC: 0.25 µg/mL (≈ 0.149 µM)
[9]
  MIC: 0.5 µg/mL (≈ 0.297 µM)
[10]
  MIC: 2 µg/mL (≈ 1.19 µM)
[11]
  MIC: 0.25 µg/mL (≈ 0.149 µM)
[12]
  MIC: 0.25 µg/mL (≈ 0.149 µM)
[13]
  MIC: 1 µg/mL (≈ 0.595 µM)
[14]
  MIC: 0.25 µg/mL (≈ 0.149 µM)
[15]
  MIC: 0.25 µg/mL (≈ 0.149 µM)
[16]
  MIC: 0.25 µg/mL (≈ 0.149 µM)
[17]
  MIC: 0.5 µg/mL (≈ 0.297 µM)
[18]
  MIC: 0.5 µg/mL (≈ 0.297 µM)
[19]
  MIC: 1 µg/mL (≈ 0.595 µM)
[20]
  MIC: 0.5 µg/mL (≈ 0.297 µM)
[21]
  MIC: 1 µg/mL (≈ 0.595 µM)
[22]
  MIC: 1 µg/mL (≈ 0.595 µM)
[23]
  MIC: 1 µg/mL (≈ 0.595 µM)
[24]
  Ratio: 2
[25]
  Ratio: 2
[26]
  Ratio: 2
[27]
  Ratio: 2
[28]
  Ratio: 2
[29]
  Ratio: 2
[30]
  Ratio: 2
[31]
  Ratio: 2
[32]
  Ratio: 2
[33]
  Ratio: 2
[34]
  Ratio: 2
[35]
  Ratio: 2
[36]
  Ratio: 2
[37]
  MIC: ≥ 8190 µg/mL
